The values below come from US9980943B2, “Methods of treating muscular dystrophy” (BOARD OF REGENTS OF THE NEVADA SYSTEM OF HIGHER EDUCATION, …, priority 2013, dated 2018).

This experiment has as its system α7 integrin (LacZ reporter in α7LacZ+/− myoblasts). Put plainly: qHTS of the LOPAC library and MLSMR (online screen, α7LacZ+/− myoblasts). The conditions noted are these: for activation at 0.307 µM / activation at 1.53 µM / activation at 7.66 µM / activation at 38.3 µM / Emax / EC50: Mus musculus, Myoblast; for activation at 0.307 µM: read-out: Activity at 0.307 uM [%] **; for activation at 1.53 µM: read-out: Activity at 1.530 uM [%] **; for activation at 7.66 µM: read-out: Activity at 7.660 uM [%] **; for activation at 38.3 µM: read-out: Activity at 38.30uM [%] **; for EC50: read-out: Fit LogAC50 (converted); for Score: Table 8 Compound data.

[1] abbreviates: 48 h, read-out: Fit Infinite Activity [%].

Like-named read-outs stand apart in the source and are kept apart here.

Procedure: A total of 250 α7LacZ^+/− myoblasts at passage 13 were dispensed using a multidrop (Thermo) into black low base tissue culture treated microclear aurora plates in 6 μl media containing DMEM without phenol, 5% FBS, 1× GluMax and 1× Penicillin/Streptomycin. […] Compounds were then dispensed using a Kalypsys pintool to deliver 23 nl/well compounds in DMSO (diluted into 6 μl resulting in a 1:260 dilution of compound). […] After incubation with compound, 5 μl of the media was aspirated using the Kalypsys washer/dispenser and 3 μl of the Mammalian Protein Extraction Reagent (MPER) lysis buffer (Thermo Fisher) was added. […] The plates were then incubated for 10 minutes at room temperature.
The assay was adapted for a high-throughput screen with the fully automated Kalypsys robotic system using 1536 well plates at NCGC.

In the case of `Fc1ccc(-c2ccnn2-c2ccccc2)cc1` [Compound 107], the EC50 was 4.47 µM. Besides, under “48 h”, the activation at 0.307 µM is -17.2%, the activation at 1.53 µM was -3.24%, the activation at 7.66 µM was 46% and the activation at 38.3 µM was determined as 73.3%. Besides, the Emax under setting [1] is 76.4%. The Emax (read-out: Max Response [%]) was found to be 73.3%.
As to `Sc1nnc(Cn2cnc3ccccc32)n1-c1ccccc1` [Compound 189], for the setting “48 h”, the activation at 0.307 µM is 13.1%, the activation at 1.53 µM was 23.7%, the activation at 7.66 µM came to 44% and the activation at 38.3 µM came to 66.7%. Besides, the Emax under setting [1] was determined as 84.6%. Further, the Emax (read-out: Max Response [%]) stood at 66.7%.
As for `O=Cc1cn(Cc2ccc(F)cc2Cl)c2ccccc12` [Compound 209], under “48 h”, the activation at 0.307 µM was 13%, the activation at 1.53 µM stood at 10.6%, the activation at 7.66 µM was 18.6% and the activation at 38.3 µM came to 139%. In addition, under setting [1], the Emax worked out at 142%. For the setting “read-out: Max Response [%]”, the Emax was found to be 139%.
As to `C/C(=N\NC(=O)c1cc(C)oc1C)c1ccc2ccccc2c1` [Compound 149], under “48 h”, the activation at 0.307 µM was -0.126%, the activation at 1.53 µM was found to be 8.59%, the activation at 7.66 µM was 37% and the activation at 38.3 µM came out at 68%. Besides, the Emax under setting [1] worked out at 82.4%. In addition, the Emax (read-out: Max Response [%]) was found to be 68%.
On to `Cc1ccc(C2Nc3cccc4cccc(c34)N2)s1` [Compound 24], for which the EC50 was 3.16 µM. For the same compound, for the setting “48 h”, the activation at 0.307 µM was 5.89%, the activation at 1.53 µM came out at 19.6%, the activation at 7.66 µM is 73.1% and the activation at 38.3 µM was found to be 81.3%. Moreover, the Emax under setting [1] was determined as 82.7%.
With `CN(Cc1c(C(=O)N/N=C/c2cccc(F)c2)nnn1-c1nonc1N)c1ccccc1` [Compound 97], the EC50 is 5.62 µM. Under “48 h”, the activation at 0.307 µM came out at 1.91%, the activation at 1.53 µM worked out at 1.37%, the activation at 7.66 µM amounted to 59.1% and the activation at 38.3 µM is 79.3%. Besides, under setting [1], the Emax came to 79.8%. The Emax (read-out: Max Response [%]) is 79.3%.
Consider `NS(=O)(=O)c1ccc(NC(=O)c2cc(-c3ccccc3O)[nH]n2)cc1` [Compound 105], for which the EC50 was 10 µM. For the same compound, where the note is “48 h”, the activation at 0.307 µM was 15.4%, the activation at 1.53 µM came out at 17.9%, the activation at 7.66 µM was found to be 44.2% and the activation at 38.3 µM was found to be 112%. The Emax under setting [1] amounted to 113%. Further, the Emax (read-out: Max Response [%]) was determined as 112%.
With `Cc1ccc(C2=C(CC(=O)O)C(=O)CC2)cc1` [Compound 86], the EC50 was 4.47 µM. Besides, under “48 h”, the activation at 0.307 µM amounted to 10.4%, the activation at 1.53 µM turned out to be 28.9%, the activation at 7.66 µM is 57.4% and the activation at 38.3 µM worked out at 80.4%. For the same compound, the Emax under setting [1] came out at 94.7%. Moreover, for the setting “read-out: Max Response [%]”, the Emax turned out to be 80.4%.
Consider `O=C(COc1cc2oc(=O)c3c(c2cc1Cl)CCCC3)NC[C@H]1CC[C@H](C(=O)O)CC1` [Compound 95], for which the EC50 was 7.08 µM. For the same compound, for the setting “48 h”, the activation at 0.307 µM was -12.4%, the activation at 1.53 µM was 3.06%, the activation at 7.66 µM came to 36.2% and the activation at 38.3 µM is 67.9%. For the same compound, the Emax under setting [1] is 83.4%. The Emax (read-out: Max Response [%]) is 67.9%.
Consider `Cc1ccc(S(=O)(=O)N2CN(CC3CCCO3)c3nc4ccccc4nc32)c(C)c1` (stereo not drawn) [Compound 91], for which the EC50 is 11.2 µM and the Score is listed as 43. Further, where the note is “48 h”, the activation at 0.307 µM is -19.2%, the activation at 1.53 µM is -13.3%, the activation at 7.66 µM came out at 6.57% and the activation at 38.3 µM came to 121%. Besides, the Emax under setting [1] was 122%. For the setting “read-out: Max Response [%]”, the Emax was determined as 121%.
Consider `Cc1cc(NC(=O)c2ccc(Cl)cc2Cl)no1` [Compound 19], for which the EC50 is 1.41 µM. Where the note is “48 h”, the activation at 0.307 µM is -20.1%, the activation at 1.53 µM was found to be 15%, the activation at 7.66 µM came out at 43.9% and the activation at 38.3 µM stood at 52.1%. Also, the Emax under setting [1] stood at 52.7%.
With `CN(C)/C(S)=N/c1cccc(C(F)(F)F)c1` [Compound 172], the EC50 is 10 µM. For the same compound, for the setting “48 h”, the activation at 0.307 µM is 8.95%, the activation at 1.53 µM was 7.22%, the activation at 7.66 µM worked out at 31.2% and the activation at 38.3 µM is 71.2%. Under setting [1], the Emax was determined as 73.8%. Under “read-out: Max Response [%]”, the Emax was determined as 71.2%.
Regarding `CC(=O)c1ccc(N(C(=O)CNC(=O)c2ccco2)C(C(=O)NC2CCCC2)c2ccc(C)o2)cc1` (stereo not drawn) [Compound 146], the EC50 was 10 µM. Moreover, where the note is “48 h”, the activation at 0.307 µM was -20.8%, the activation at 1.53 µM was -20.9%, the activation at 7.66 µM amounted to 0% and the activation at 38.3 µM is 75.5%. For the same compound, the Emax under setting [1] was determined as 75.5%. The Emax (read-out: Max Response [%]) was found to be 75.5%.
`COc1ccc(-c2csc3ncnc(N4CCN(c5ccccc5[N+](=O)[O-])CC4)c23)cc1` [Compound 94]: the EC50 was 10 µM and the Score came out at 43. Besides, under “48 h”, the activation at 0.307 µM is 11.5%, the activation at 1.53 µM came to 8.66%, the activation at 7.66 µM was found to be 36.5% and the activation at 38.3 µM came out at 138%. Further, the Emax under setting [1] came out at 138%. Moreover, where the note is “read-out: Max Response [%]”, the Emax worked out at 138%.
As for `COc1ccccc1OCC(=O)N/N=C1/C=C(C)CC1` [Compound 185], the EC50 is 10 µM. Besides, for the setting “48 h”, the activation at 0.307 µM was -21.6%, the activation at 1.53 µM was -24%, the activation at 7.66 µM stood at 0% and the activation at 38.3 µM was found to be 94.5%. Under setting [1], the Emax was 94.2%. In addition, for the setting “read-out: Max Response [%]”, the Emax turned out to be 94.5%.
For `C=CCn1c(COc2ccc(Cl)cc2)nnc1SCc1ccc(C#N)cc1` [Compound 220], under “48 h”, the activation at 0.307 µM stood at 7.14%, the activation at 1.53 µM was found to be 9.51%, the activation at 7.66 µM is 27.6% and the activation at 38.3 µM worked out at 93.8%. Under setting [1], the Emax is 95.1%. In addition, the Emax (read-out: Max Response [%]) came to 93.8%.
With `O=C(NCCc1ccc(F)cc1)N[C@@H](Cc1ccccc1)C(=O)O` [Compound 165], under “48 h”, the activation at 0.307 µM was -20.5%, the activation at 1.53 µM is -20.4%, the activation at 7.66 µM came to 0% and the activation at 38.3 µM was determined as 108%. The Emax under setting [1] amounted to 109%. Where the note is “read-out: Max Response [%]”, the Emax is 108%.
For the compound `CC(C)NC(=O)CN1CCN(C(=O)CCl)CC1` [Compound 62], the EC50 was 7.08 µM. Further, for the setting “48 h”, the activation at 0.307 µM is -21.4%, the activation at 1.53 µM was -18%, the activation at 7.66 µM came out at 77.9% and the activation at 38.3 µM came to 155%. The Emax under setting [1] came to 162%. Besides, where the note is “read-out: Max Response [%]”, the Emax stood at 155%.
As to `O=Cc1cnc(N2CCCCC2)s1` [Compound 191], under “48 h”, the activation at 0.307 µM is -18.1%, the activation at 1.53 µM is -20%, the activation at 7.66 µM is -4.2% and the activation at 38.3 µM amounted to 96%. Also, under setting [1], the Emax worked out at 96.3%. Moreover, under “read-out: Max Response [%]”, the Emax was determined as 96%.
In the case of `C/C(CC(=O)Nc1ccc(Cl)c(C(F)(F)F)c1)=N\NC(=O)c1cnccn1` [Compound 38], the EC50 is 4.47 µM. For the same compound, under “48 h”, the activation at 0.307 µM is -0.625%, the activation at 1.53 µM was -2.88%, the activation at 7.66 µM was 69.2% and the activation at 38.3 µM is 72.7%. In addition, the Emax under setting [1] came out at 73.5%.
Regarding `O=c1oc2c(-c3cccc(F)c3)cc(O)cc2s1` [Compound 23], the EC50 was 3.98 µM. Also, where the note is “48 h”, the activation at 0.307 µM is 12.6%, the activation at 1.53 µM stood at 18.8%, the activation at 7.66 µM is 87.3% and the activation at 38.3 µM was determined as 98.9%. Besides, the Emax under setting [1] was found to be 98.5%.
For `COc1ccc(S(=O)(=O)Nc2ccc(S(=O)(=O)Nc3nccs3)cc2)cc1` [Compound 152], for the setting “48 h”, the activation at 0.307 µM was -6.73%, the activation at 1.53 µM turned out to be 0%, the activation at 7.66 µM was 26.3% and the activation at 38.3 µM was 67.4%. The Emax under setting [1] was 88.8%. In addition, where the note is “read-out: Max Response [%]”, the Emax was determined as 67.4%.
Turning to `Cc1nc2c(cnn2-c2ccccc2)c(=O)n1/N=C/c1ccccc1` [Compound 171], the EC50 was 10 µM. In addition, where the note is “48 h”, the activation at 0.307 µM was found to be 10%, the activation at 1.53 µM turned out to be 10.2%, the activation at 7.66 µM came to 28.1% and the activation at 38.3 µM was 68.4%. In addition, under setting [1], the Emax was 69.5%. The Emax (read-out: Max Response [%]) was determined as 68.4%.
With `O=C(O)CCCNC(=O)CCn1nnc2ccccc2c1=O` [Compound 174], for the setting “48 h”, the activation at 0.307 µM was -21.7%, the activation at 1.53 µM is -16.7%, the activation at 7.66 µM turned out to be 13.6% and the activation at 38.3 µM worked out at 74.2%. In addition, the Emax under setting [1] was 83.7%. Also, the Emax (read-out: Max Response [%]) worked out at 74.2%.
On to `CCOC(=O)c1sc(=N)n(-c2ccc(OC)cc2)c1C` [Compound 26], for which the EC50 was 2 µM. For the same compound, for the setting “48 h”, the activation at 0.307 µM is -25.4%, the activation at 1.53 µM was determined as 4.59%, the activation at 7.66 µM is 41.9% and the activation at 38.3 µM was 56.1%. Moreover, the Emax under setting [1] worked out at 59.6%.
For the compound `CC(OC(=O)c1cc(-c2cccnc2)nc2ccccc12)C(=O)Nc1ccc2ccccc2c1` (stereo not drawn) [Compound 1], the EC50 is 1.12 µM. For the setting “48 h”, the activation at 0.307 µM stood at 0%, the activation at 1.53 µM stood at 143%, the activation at 7.66 µM came out at 198% and the activation at 38.3 µM stood at 191%. The Emax under setting [1] was found to be 195%.
For the compound `COC(=O)Cc1c(O)ccn(Cc2ccc3c(c2)OCO3)c1=O` [Compound 80], the EC50 is 10 µM. Moreover, under “48 h”, the activation at 0.307 µM was -4.78%, the activation at 1.53 µM worked out at 4.56%, the activation at 7.66 µM amounted to 65.9% and the activation at 38.3 µM was determined as 146%. For the same compound, the Emax under setting [1] was 169%. For the same compound, where the note is “read-out: Max Response [%]”, the Emax turned out to be 146%.
